Experimental data: patent US9845291B2, “Estrogen receptor modulators and uses thereof” (Genentech, Inc., priority 2014, dated 2017)

Target: estrogen receptor alpha (ESR1) (Homo sapiens, UniProt P03372)
Experiment: cell-based
Settings: for ER-alpha MCF7 HCS Sinf: MCF7 breast cancer cells, 4 hours, plateau of the maximal effect, DMSO and Fulvestrant define 0% and 100% changes in ESR1
Procedure: Where more than one name is associated with a Formula I compound or intermediate, the chemical structure shall define the compound.
Cell plates were incubated at 37° C., for 4 hours. Fixation and permeabilization were carried out using a Biotek EL406 plate washer and dispenser as follows. […] Samples were incubated 30 minutes. Well contents was aspirated and 50 ul/well of Phosphate Buffered Saline (PBS) containing 0.5% w/v bovine serum albumen, 0.5% v/v Triton X-100 (Antibody Dilution Buffer) was added to each well. Samples were incubated for 30 minutes. Well contents were aspirated and washed 3 times with 100 ul/well of PBS. Immunofluorescence staining of estrogen receptor alpha (ESR1) was carried out using a Biotek EL406 plate washer and dispenser as follows. […] Samples were incubated for 2 hours at room temperature. Samples were washed 4 times with 100 ul/well of PBS. […] Samples were incubated for 2 hours at room temperature. Samples were washed 3 times with 100 ul/well of PBS using a Biotek EL406. Quantitative fluorescence imaging of ESR1 was carried out using a Cellomics Arrayscan V (Thermo). […] Channel 1 (DNA stain) was used to define the nuclear region (Circ). […] Data analysis was carried out using Genedata Screener Software, with DMSO and 5 nM Fulvestrant treated samples being used to define the 0% and 100% changes in ESR1. The “Robust Fit” method was used to define the inflexion point of curve (EC50) and the plateau of the maximal effect (Sin f).

estrogen receptor alpha (ESR1), sequence (P03372 whole entry): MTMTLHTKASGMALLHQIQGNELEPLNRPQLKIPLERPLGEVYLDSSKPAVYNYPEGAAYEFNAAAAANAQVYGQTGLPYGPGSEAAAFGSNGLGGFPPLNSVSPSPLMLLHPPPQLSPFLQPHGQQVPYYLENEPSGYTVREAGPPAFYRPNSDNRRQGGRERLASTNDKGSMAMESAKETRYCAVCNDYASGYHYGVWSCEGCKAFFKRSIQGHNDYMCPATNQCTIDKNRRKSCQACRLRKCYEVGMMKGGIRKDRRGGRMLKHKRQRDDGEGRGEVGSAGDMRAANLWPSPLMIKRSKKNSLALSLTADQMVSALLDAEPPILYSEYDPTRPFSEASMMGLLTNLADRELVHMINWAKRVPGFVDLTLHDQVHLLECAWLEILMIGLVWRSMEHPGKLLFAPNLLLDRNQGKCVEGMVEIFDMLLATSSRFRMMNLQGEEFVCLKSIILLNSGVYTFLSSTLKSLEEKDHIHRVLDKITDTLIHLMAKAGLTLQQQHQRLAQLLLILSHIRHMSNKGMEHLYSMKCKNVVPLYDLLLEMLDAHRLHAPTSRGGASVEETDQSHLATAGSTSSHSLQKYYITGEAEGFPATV

SMILES | EC50 [nM] | ER-alpha MCF7 HCS Sinf [%]
Cc1cc(-c2sc3cc(O)ccc3c2C(=O)c2ccc(OCCN3CC(CF)C3)cc2)ccc1F [Example 36, (2-(4-fluoro-3-methylphenyl)-6-hydroxybenzo[b]thiophen-3-yl)(4-(2-(3-(fluoromethyl)azetidin-1-yl)ethoxy)phenyl)methanone] | 2.5 | −97
Oc1ccc2c(c1)O[C@@H](c1ccc(OCCN3CC(CF)C3)cc1)C1=C2CCOc2ccc(O)cc21 [Example 78, (S)-8-(4-(2-(3-(fluoromethyl)azetidin-1-yl)ethoxy)phenyl)-2,8-dihydro-1H-benzo[2,3]oxepino[4,5-c]chromene-6,11-diol] | 0.611 | −90.0
CS(=O)(=O)c1ccc(-c2ccc3cc(O)ccc3c2Oc2ccc(OCCN3CC(CF)C3)cc2)cc1 [Example 7, 5-(4-(2-(3-(Fluoromethyl)azetidin-1-yl)ethoxy)phenoxy)-6-(4-(methylsulfonyl)phenyl)naphthalen-2-ol] | 1.6 | −95
Cc1c(-c2ccc(O)cc2)n(Cc2ccc(OC[C@H](C)N3CC[C@@H](CF)C3)cc2)c2ccc(O)cc12 [Example 2, 1-(4-((S)-2-((R)-3-(Fluoromethyl)pyrrolidin-1-yl)propoxy)benzyl)-2-(4-hydroxyphenyl)-3-methyl-1H-indol-5-ol] | 1.6 | −93
Oc1ccc(-c2onc(-c3ccccc3Cl)c2-c2ccc(OCCN3CC[C@@H](CF)C3)cc2)cc1 [Example 15, (R)-4-(3-(2-Chlorophenyl)-4-(4-(2-(3-(fluoromethyl)pyrrolidin-1-yl)ethoxy)phenyl)isoxazol-5-yl)phenol] | 2.3 | −84
C[C@@H](COc1ccc(C(=O)c2c(-c3ccccc3Cl)noc2-c2ccc(O)cc2)cc1F)N1CC[C@@H](CF)C1 [Example 76, [3-(2-chlorophenyl)-5-(4-hydroxyphenyl)isoxazol-4-yl]-[3-fluoro-4-[(2S)-2-[(3R)-3-(fluoromethyl)pyrrolidin-1-yl]propoxy]phenyl]methanone] | 0.091 | −101
Oc1cccc([C@@H]2Sc3c(ccc(O)c3F)O[C@@H]2c2ccc(OCCN3CC(CF)C3)cc2)c1 [Example 60, (2R,3S)-5-fluoro-2-(4-(2-(3-(fluoromethyl)azetidin-1-yl)ethoxy)phenyl)-3-(3-hydroxyphenyl)-2,3-dihydrobenzo[b][1,4]oxathiin-6-ol] | 15.8 | −91.9
CS(=O)(=O)c1ccc(-c2ccc3cc(O)ccc3c2C(=O)c2ccc(OCCN3CC[C@@H](CF)C3)cc2)cc1 [Example 67, [4-[2-[(3R)-3-(fluoromethyl)pyrrolidin-1-yl]ethoxy]phenyl]-[6-hydroxy-2-(4-methylsulfonylphenyl)-1-naphthyl]methanone] | 0.414 | −97.6
Oc1ccc2c(c1)C1=C(c3cc(O)ccc3OCC1)[C@H](c1ccc(OCCN3CC(CF)C3)cc1)O2 [Example 74, (S)-8-(4-(2-(3-(fluoromethyl)azetidin-1-yl)ethoxy)phenyl)-1,8-dihydro-2H-benzo[2,3]oxepino[4,5-c]chromene-6,12-diol] | 0.19 | −93.3
CC/C(=C(\c1ccccc1)c1ccc(OCCN2CC(CF)C2)cc1)c1ccccc1 [Example 21, (Z)-1-(2-(4-(1,2-Diphenylbut-1-en-1-yl)phenoxy)ethyl)-3-(fluoromethyl)azetidine] | 11 | −97
Cc1c(-c2ccc(O)cc2)n(Cc2ccc(OCCN3CC(CF)C3)cc2)c2ccc(O)cc12 [Example 1, 1-(4-(2-(3-(Fluoromethyl)azetidin-1-yl)ethoxy)benzyl)-2-(4-hydroxyphenyl)-3-methyl-1H-indol-5-ol] | 0.46 | −95
COc1ccc(/C(=C(\c2ccc(OCCN3CC[C@@H](CF)C3)cc2)c2ccc3[nH]nc(F)c3c2)C2CCC2)c(Cl)c1 [Example 26, (R,E)-5-(2-(2-Chloro-4-methoxyphenyl)-2-cyclobutyl-1-(4-(2-(3-(fluoromethyl)pyrrolidin-1-yl)ethoxy)phenyl)vinyl)-3-fluoro-1H-indazole] | 0.6 | −75
Oc1cccc([C@H]2Sc3c(ccc(O)c3F)O[C@H]2c2ccc(OCCN3CC(CF)C3)cc2)c1 [Example 58, (2S,3R)-5-fluoro-2-(4-(2-(3-(fluoromethyl)azetidin-1-yl)ethoxy)phenyl)-3-(3-hydroxyphenyl)-2,3-dihydrobenzo[b][1,4]oxathiin-6-ol] | 0.026 | −99.8
Cn1c(-c2ccc(O)cc2)c(C(=O)c2ccc(OCCN3CC(CF)C3)cc2)c2ccc(O)cc21 [Example 6, (4-(2-(3-(Fluoromethyl)azetidin-1-yl)ethoxy)phenyl)(6-hydroxy-2-(4-hydroxyphenyl)-1-methyl-1H-indol-3-yl)methanone] | 550 | −50
Cc1c(-c2ccc(O)c(F)c2)n(Cc2ccc(OC[C@H](C)N3CC[C@@H](CF)C3)cc2)c2ccc(O)cc12 [Example 45, 2-(3-fluoro-4-hydroxy-phenyl)-1-[[4-[(2S)-2-[(3R)-3-(fluoromethyl)pyrrolidin-1-yl]propoxy]phenyl]methyl]-3-methyl-indol-5-ol] | 0.00632 | −97.5
O=C(c1ccc(OCCN2CC(CF)C2)c(F)c1)c1c(-c2ccccc2Cl)nsc1-c1ccc(O)cc1 [Example 72, [3-(2-Chloro-phenyl)-5-(4-hydroxy-phenyl)-isothiazol-4-yl]-{3-fluoro-4-[2-(3-fluoromethyl-azetidin-1-yl)-ethoxy]-phenyl}-methanone] | 0.0159 | −99.0
Oc1cccc([C@H]2Sc3cc(O)ccc3O[C@H]2c2ccc(OCCN3CC(CF)C3)cc2)c1 (racemic) [Example 31, 2-(4-(2-(3-(Fluoromethyl)azetidin-1-yl)ethoxy)phenyl)-3-(3-hydroxyphenyl)-2,3-dihydrobenzo[b][1,4]oxathiin-6-ol] | 1.1 | −97
Cc1c(-c2ccc(O)cc2)n(Cc2ccc(OCCN3CC(CF)C3)cc2)c2ccccc12 [Example 5, 4-(1-(4-(2-(3-(Fluoromethyl)azetidin-1-yl)ethoxy)benzyl)-3-methyl-1H-indol-2-yl)phenol] | 65 | −93
CC/C(=C(/c1ccc(OCCN2CC(CF)C2)cc1)c1ccc2[nH]ncc2c1)c1ccccc1 [Example 25, (E)-5-(1-(4-(2-(3-(Fluoromethyl)azetidin-1-yl)ethoxy)phenyl)-2-phenylbut-1-en-1-yl)-1H-indazole] | 1.5 | −92
CC/C(=C(\c1ccc(O)cc1)c1ccc(OCCN2CC[C@@H](CF)C2)cc1)c1ccccc1 [Example 22, (R,Z)-4-(1-(4-(2-(3-(Fluoromethyl)pyrrolidin-1-yl)ethoxy)phenyl)-2-phenylbut-1-en-yl)phenol] | 0.58 | −83
O=C(c1ccc(OCCN2CC(CF)C2)cc1)c1c(-c2ccc(F)cc2)sc2cc(O)ccc12 [Example 10, (4-(2-(3-(fluoromethyl)azetidin-1-yl)ethoxy)phenyl)(2-(4-fluorophenyl)-6-hydroxyhenzo[b]thiophen-3-yl)methanone] | 0.45 | −96
CS(=O)(=O)c1ccc(-c2ccc3cc(O)ccc3c2Oc2ccc(OCCN3CC[C@@H](CF)C3)cc2)cc1 [Example 8, (R)-5-(4-(2-(3-(Fluoromethyl)pyrrolidin-1-yl)ethoxy)phenoxy)-6-(4-(methylsulfonyl)phenyl)naphthalen-2-ol] | 0.27 | −95
O=C(c1ccc(OCCN2CC[C@@H](CF)C2)c(F)c1)c1c(-c2ccccc2Cl)noc1-c1ccc(O)cc1 [Example 73, [3-(2-chlorophenyl)-5-(4-hydroxyphenyl)isoxazol-4-yl]-[3-fluoro-4-[2-[(3R)-3-(fluoromethyl)pyrrolidin-1-yl]ethoxy]phenyl]methanone] | 0.123 | −97.6
CC/C(=C(\c1ccccc1)c1ccc(OC[C@H](C)N2CC[C@@H](CF)C2)cc1)c1ccccc1 [Example 20, (R)-1-((S)-1-(4-((Z)-1,2-Diphenylbut-1-en-1-yl)phenoxy)propan-2-yl)-3-(fluoromethyl)pyrrolidine] | 24 | −73
Cc1cc(-c2c(C)c3cc(O)ccc3n2Cc2ccc(OCCN3CC(CF)C3)cc2)ccc1O [Example 41, 1-[[4-[2-[3-(fluoromethyl)azetidin-1-yl]ethoxy]phenyl]methyl]-2-(4-hydroxy-3-methyl-phenyl)-3-methyl-indol-5-ol] | 0.0518 | −97.8
Cc1c(-c2ccc(O)cc2)n(Cc2ccc(OCCN3CC(CF)C3)cc2)c2ccc(O)c(F)c12 [Example 48, 4-fluoro-1-[[4-[2-[3-(fluoromethyl)azetidin-1-yl]ethoxy]phenyl]methyl]-2-(4-hydroxyphenyl)-3-methyl-indol-5-ol] | 0.662 | −92.8
